Literature values in patent US9238083B2, “Molecular probe for imaging of pancreatic islets and use of the same” (Kyoto University, priority 2009, dated 2016).

Key:
pancreatic islet cells = settings: cited from earlier work
[1] = system: GLP-1R-positive tumor cells; settings: cited from earlier work

## Lys^40(Ahx-DTPA-^111In)Exendin-4(9-39)
Pancreatic islet cells
  uptake in pancreatic islets: about 0.4%
Pancreatic islet cells; conclusion from the uptake results
  affinity with respect to GLP-1R: low affinity
[1]
  uptake in the GLP-1R-positive tumor cells: about 7.5%
